Data from ChEMBL document CHEMBL1151237, “Chamuvarinin, an acetogenin bearing a tetrahydropyran ring from the roots of Uvaria chamae” (J Nat Prod, 2004).

Experiment: Cytotoxicity against human KB3-1 cells by colorimetric assay
Format: functional, cell-based
Conditions: KB 3-1

CCCCCCC1CCCC(C2CCC([C@H]3CC[C@H]([C@H](O)CCCCCCCCCCCCC4=C[C@H](C)OC4=O)O3)O2)O1 (some centres not stated) [CHAMUVARININ]
IC50: 0.8 nM

CCCCCC[C@H](O)CCC[C@H](O)[C@H]1CC[C@H]([C@H]2CC[C@H]([C@H](O)CCCCCCCCCCCCC3=C[C@H](C)OC3=O)O2)O1 [SQUAMOCIN]
IC50: 0.003 nM
